Reference: patent publication US20160213742A1, “COMPOSITIONS AND METHODS FOR THE TREATMENT OF FUNGAL INFECTIONS” (priority 2013, published 2016)
In brackets after ≈: the same amount, converted by molar mass.

Experiments:
Assay type in all cases: cell-based
A. fumigatus ATCC 13073 = assay: MEC assay (Example 31); conditions: RPMI pH 7.0, 35° C., 24-48 hr
Protocol: (§1) The test organisms consisted of strains from the Micromyx collection. Reference isolates were originally received from the American Type Culture Collection (ATCC; Manassas, Va.). Organisms received at Micromyx were initially streaked for isolation on Sabouraud dextrose or potato dextrose agar. Colonies were picked by swab from the medium and resuspended in the appropriate broth containing cryoprotectant. The suspensions were aliquoted into cryogenic vials and maintained at −80° C. Prior to testing, Candida isolates were streaked from the frozen vials on Sabouraud dextrose agar. The yeast isolates were incubated at overnight at 35° C. before use. The fungal isolates were incubated at least 7 days on Sabouraud dextrose agar slants at 35° C. before harvesting.
(§2) Isolates were tested in RPMI medium (Catalog No. SH30011.04; Lot No. AWA92121B; HyClone Labs, Logan, Utah) which was prepared according to CLSI guidelines. The pH of the medium was adjusted to 7.0 with 1 N NaOH. The medium was sterile filtered using a 0.2 μm PES filter and stored at 4° C. until used.
(§3) The MIC assay method employed automated liquid handlers to conduct serial dilutions and liquid transfers. Automated liquid handlers included the Multidrop 384 (Labsystems, Helsinki, Finland), Biomek 2000 and Biomek FX (Beckman Coulter, Fullerton Calif.). The wells in columns 2-12 in standard 96-well microdilution plates (Costar 3795) were filled with 150 μl of the correct diluent (50% DMSO for investigational compounds, 100% DMSO for comparator compounds). These would become the mother plates' from which ‘daughter’ or test plates would be prepared. Stocks were diluted to 40× the desired top concentration in the test plates in the indicated solvent, and 300 μL of the 40× stock was dispensed into the appropriate well in Column 1 of the mother plates. The Biomek 2000 was used to make serial serial 2-fold dilutions through Column 11 in the “mother plate”. The wells of Column 12 contained no drug and served as the organism growth control wells.
(§4) The daughter plates were loaded with 185 μL per well of RPMI described above using the Multidrop 384. The daughter plates were prepared using the Biomek FX which transferred 5 μL of drug solution from each well of a mother plate to the corresponding well of the daughter plate in a single step.
(§5) A standardized inoculum of each organism was prepared. For Candida, colonies were picked from the streak plate and a suspension was prepared in RPMI medium equal to a 0.5 McFarland standard, then diluted 1:100 in RPMI and transferred to compartments of sterile reservoirs divided by length (Beckman Coulter). For the Aspergillus isolates, previously prepared and quantitated suspensions were used to make dilutions in RPMI to reach 20× the final concentration. These dilutions were also transferred to compartments of sterile reservoirs divided by length (Beckman Coulter). The final concentration of the Aspergillus isolates was approximately 0.2-2.5×10^4 CFU/mL.
(§6) The Biomek 2000 was used to inoculate the plates. Daughter plates were placed on the Biomek 2000 work surface reversed so that inoculation took place from low to high drug concentration. The Biomek 2000 delivered 10 μL of standardized inoculum into each well. Thus, the wells of the daughter plates ultimately contained 185 μL of RPMI, 5 μL of drug solution, and 10 μL of inoculum. The final concentration of DMSO in the test well was 2.5% for the evaluated comparators and 1.25% for the investigational agents.
(§7) Plates were stacked 3 high, covered with a lid on the top plate, placed into plastic bags, and incubated at 35° C. for approximately 24-48 hr prior to reading. Plates were read when inoculum was confluent in growth wells. Plates were viewed from the bottom using a plate viewer. […] MICs were read where visible growth of the organism was inhibited. MECs were read where the growth shifted to a small, rounded, compact hyphal form as compared to the hyphal growth seen in the growth control well.

A. fumigatus MYA-3626 = assay: MEC assay (Example 31); conditions: RPMI pH 7.0, 35° C., 24-48 hr
Protocol: as §1, §2, §3, §4, §5, §6, §7

A. fumigatus MYA-4609 = assay: MEC assay (Example 31); conditions: RPMI pH 7.0, 35° C., 24-48 hr
Protocol: as §1, §2, §3, §4, §5, §6, §7

A. flavus MX 5948 = assay: MEC assay (Example 31); conditions: RPMI pH 7.0, 35° C., 24-48 hr
Protocol: as §1, §2, §3, §4, §5, §6, §7

A. fumigatus MX 5944 = assay: MEC assay (Example 31); conditions: RPMI pH 7.0, 35° C., 24-48 hr
Protocol: as §1, §2, §3, §4, §5, §6, §7

C. albicans ATCC 90028 = assay: microbe, parasite or virus in culture; conditions: ATCC 90028, pH 7
Protocol: as §1, §2, §3, §4, §5, §6, §7

C. krusei ATCC 14243 = assay: microbe, parasite or virus in culture; conditions: ATCC 14243, pH 7
Protocol: as §1, §2, §3, §4, §5, §6, §7

[1] = test system: C. parapsilosis ATCC 22019; assay: microbe, parasite or virus in culture; conditions: ATCC 22019, pH 7
Protocol: as §1, §2, §3, §4, §5, §6, §7

C. glabrata ATCC 90030 = assay: microbe, parasite or virus in culture; conditions: ATCC 90030, pH 7
Protocol: as §1, §2, §3, §4, §5, §6, §7

[2] = test system: Neutrophils purified from human peripheral blood; assay: Human Neutrophil Transwell Migration Assay; conditions: 37° C., 45 minutes, % of the maximum migration possible
Source text: Neutrophils were purified from human peripheral blood utilizing PolymorphPrep. Red blood cells were lysed with a lysis buffer and the cells were washed, counted and resuspended in assay buffer. Neutrophils (approximately 50,000 to 100,000 in number) were placed over 5-micon pore sized transwell plates in 24-well format with test compounds in the bottom chamber of each well. A negative control of media alone in the bottom chamber was set up in triplicate. A positive control where the neutrophils were added directly to the bottom well was set up in triplicate.
The plates were incubated at 37° C. for 45 minutes to allow for migration. After this time, migration was confirmed visually and then an aliquot (⅙^th of total cells) from each well was taken for ATP detection via luminescence with ATPlite (PerkinElmer) to quantify the number of migrated cells. The averaged reading for random migration detected in the negative control was subtracted from all readings to obtain the corrected migration number. These numbers were then divided by the averaged reading from the positive control to get the % Neutrophil Migration of the maximum migration possible.

Compound | MEC (A. fumigatus ATCC 13073) | MEC (A. fumigatus MYA-3626) | MEC (A. fumigatus MYA-4609) | MEC (A. flavus MX 5948) | MEC (A. fumigatus MX 5944) | MIC (C. albicans ATCC 90028) | MIC (C. krusei ATCC 14243) | MIC [1] | MIC (C. glabrata ATCC 90030) | % Neutrophil Migration ([2]; conc 0.001 μg/mL) | % Neutrophil Migration ([2]; conc 0.01 μg/mL) | % Neutrophil Migration ([2]; conc 0.1 μg/mL) | % Neutrophil Migration ([2]; conc 1 μg/mL) | % Neutrophil Migration ([2]; conc 10 μg/mL)
CC[C@H](C)C[C@H](C)CCCCCCCCC(=O)N[C@H]1C[C@@H](O)[C@@H](NCCN)NC(=O)[C@@H]2[C@@H](O)CCN2C(=O)[C@H]([C@H](O)CCNC(=O)[C@H](CCSC)NC(=O)[C@H](CC(C)C)NC(=O)[C@H](CCSC)NC=O)NC(=O)[C@H]([C@H](O)[C@@H](O)c2ccc(O)cc2)NC(=O)[C@@H]2C[C@@H](O)CN2C(=O)[C@H]([C@@H](C)O)NC1=O [Compound 28] | 0.25 µg/mL | 0.25 µg/mL | 0.25 µg/mL | 0.12 µg/mL | 0.25 µg/mL | 1 µg/mL (≈ 0.668 µM) | 8 µg/mL (≈ 5.34 µM) | 8 µg/mL (≈ 5.34 µM) | 2 µg/mL (≈ 1.34 µM) | −0.4% | 2.2% | 43.4% | −0.2% | −7.4%
CC[C@H](C)C[C@H](C)CCCCCCCCC(=O)N[C@H]1C[C@@H](O)[C@@H](NCCN)NC(=O)[C@@H]2[C@@H](O)CCN2C(=O)[C@H]([C@H](O)CCNC(=O)[C@H](CCCCN)NC(=O)[C@H](Cc2ccccc2)NC(=O)[C@H](CC(C)C)NC(=O)[C@H](CCSC)NC=O)NC(=O)[C@H]([C@H](O)[C@@H](O)c2ccc(O)cc2)NC(=O)[C@@H]2C[C@@H](O)CN2C(=O)[C@H]([C@@H](C)O)NC1=O [Compound 14] | 0.25 µg/mL | 0.25 µg/mL | 0.12 µg/mL | 0.12 µg/mL | 0.12 µg/mL | 2 µg/mL (≈ 1.22 µM) | 16 µg/mL (≈ 9.75 µM) | 16 µg/mL (≈ 9.75 µM) | 16 µg/mL (≈ 9.75 µM) | 0.9% | 1.9% | 14.8% | 21.4% | −9.0%
CC[C@H](C)C[C@H](C)CCCCCCCCC(=O)N[C@H]1C[C@@H](O)[C@@H](NCCN)NC(=O)[C@@H]2[C@@H](O)CCN2C(=O)[C@H]([C@H](O)CCNC(=O)CCNC(=O)[C@H](Cc2ccccc2)NC(=O)[C@H](CC(C)C)NC(=O)[C@H](CCSC)NC=O)NC(=O)[C@H]([C@H](O)[C@@H](O)c2ccc(O)cc2)NC(=O)[C@@H]2C[C@@H](O)CN2C(=O)[C@H]([C@@H](C)O)NC1=O [Compound 3] | 1 µg/mL | 1 µg/mL | 1 µg/mL | 1 µg/mL | 1 µg/mL | 2 µg/mL (≈ 1.26 µM) | 16 µg/mL (≈ 10.1 µM) | >32 µg/mL | 16 µg/mL (≈ 10.1 µM) | 1.5% | 109.3% | 66.2% | −9.7% | −11.0%
CC[C@H](C)C[C@H](C)CCCCCCCCC(=O)N[C@H]1C[C@@H](O)[C@@H](NCCN)NC(=O)[C@@H]2[C@@H](O)CCN2C(=O)[C@H]([C@H](O)CCNC(=O)[C@@H](N)CCCCNC(=O)[C@H](Cc2ccccc2)NC(=O)[C@H](CC(C)C)NC(=O)[C@H](CCSC)NC=O)NC(=O)[C@H]([C@H](O)[C@@H](O)c2ccc(O)cc2)NC(=O)[C@@H]2C[C@@H](O)CN2C(=O)[C@H]([C@@H](C)O)NC1=O [Compound 15] | 0.12 µg/mL | 0.12 µg/mL | 0.12 µg/mL | 0.12 µg/mL | 0.12 µg/mL | 1 µg/mL (≈ 0.609 µM) | 8 µg/mL (≈ 4.87 µM) | 16 µg/mL (≈ 9.75 µM) | 2 µg/mL (≈ 1.22 µM) | 9.6% | 47.3% | 13.0% | −6.3% | −7.0%
CC[C@H](C)C[C@H](C)CCCCCCCCC(=O)N[C@H]1C[C@@H](O)[C@@H](NCCNC(=O)[C@H](Cc2ccccc2)NC(=O)[C@H](CC(C)C)NC(=O)[C@H](CCSC)NC=O)NC(=O)[C@@H]2[C@@H](O)CCN2C(=O)[C@H]([C@H](O)CCN)NC(=O)[C@H]([C@H](O)[C@@H](O)c2ccc(O)cc2)NC(=O)[C@@H]2C[C@@H](O)CN2C(=O)[C@H]([C@@H](C)O)NC1=O [Compound 2] | 0.12 to 2 µg/mL | 0.25-1^ μg/mL | 0.12 to 1 µg/mL | 0.06 to 1 µg/mL | 0.12 to 1 µg/mL | 2 µg/mL (≈ 1.32 µM) | 8 to 16 µg/mL | 16 µg/mL (≈ 10.6 µM) | 4 µg/mL (≈ 2.64 µM) | −5.3% | 28.5% | 97.5% | 30.6% | −11.0%
